Among the data in patent US12679878B2, “CRF2 receptor agonists and their use in therapy” (SANOFI, priority 2020, dated 2026) are EC50 values, retold here.

This assay has as its target T1, human CRF2α receptor (Homo sapiens, UniProt Q13324).
T1 construct: expressed in transfected cells; host or cells: TeloHEAC
T1 sequence (Q13324 1-411): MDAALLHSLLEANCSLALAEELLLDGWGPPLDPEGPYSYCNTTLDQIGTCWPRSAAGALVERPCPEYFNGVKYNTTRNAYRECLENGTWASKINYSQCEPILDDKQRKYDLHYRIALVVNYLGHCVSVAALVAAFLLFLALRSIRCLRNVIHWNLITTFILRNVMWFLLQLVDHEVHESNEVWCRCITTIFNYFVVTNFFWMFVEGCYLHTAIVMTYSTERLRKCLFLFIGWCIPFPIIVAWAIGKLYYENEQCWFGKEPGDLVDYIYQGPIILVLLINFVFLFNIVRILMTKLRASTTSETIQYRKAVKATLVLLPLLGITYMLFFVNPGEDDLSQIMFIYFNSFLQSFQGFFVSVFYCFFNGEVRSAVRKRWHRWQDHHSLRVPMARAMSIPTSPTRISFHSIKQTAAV
In words: cAMP agonism at human CRF2 α receptor in TeloHEAC cells (Example 7). It is filed as cell-based. To be noted: cAMP HTRF, TeloHEAC cells stably expressing human CRF2 α. A digest of the protocol:
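Thawed frozen stably transfected cells in HBSS/20 mM HEPES (0% or 0.1% HSA) plus 2 mM IBMX were exposed to compound at 2000 cells/well for 30 min at room temperature. Intracellular cAMP was read by HTRF (665/620 nm ratio) after 1 h lysis; EC50 was derived with 1000 nM urocortin 2 set as 100%.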

The mark [1] stands for this setting: 0% HSA, read-out: EC50 [nM], 0% HSA.
[2] abbreviates: 0.1% HSA, read-out: EC50 [nM], 0.1% HSA.

Structures are written as SMILES. Read-outs that look alike come from different tables or passages of the source. Starred links: 1 amine or outer side, 2 acyl side, 3 side chain; linkers in the order of their positions; H or OH if unused. Non-standard residues stand in square brackets, D forms with d. Residues, ends and D or L forms follow the SMILES beside them. Groups on a side chain read outwards from the residue. *: point of attachment. C20 diacid = O=C(O)CCCCCCCCCCCCCCCCCCC(=O)*; C18 diacid = O=C(O)CCCCCCCCCCCCCCCCC(=O)*; γGlu = O=C(O)[C@H](CCC(=O)[*:2])N[*:1]; AEEA = NCCOCCOCC(=O)O; Aib = CC(C)(N)C(=O)O

Turning to `CC[C@H](C)[C@H](N)C(=O)N[C@H](C(=O)N[C@@H](CC(C)C)C(=O)N[C@@H](CO)C(=O)N[C@@H](CC(C)C)C(=O)N[C@@H](CC(=O)O)C(=O)N[C@H](C(=O)N1CCC[C@H]1C(=O)N[C@H](C(=O)NCC(=O)N[C@@H](CC(C)C)C(=O)N[C@@H](CCCCNC(=O)COCCOCCNC(=O)COCCOCCNC(=O)CC[C@H](NC(=O)CCCCCCCCCCCCCCCCC(=O)O)C(=O)O)C(=O)N[C@@H](CCC(N)=O)C(=O)N[C@H](C(=O)N[C@@H](CC(C)C)C(=O)N[C@@H](CC(C)C)C(=O)N[C@@H](CCC(=O)O)C(=O)N[C@@H](CCC(N)=O)C(=O)N[C@@H](CCC(=O)O)C(=O)N[C@@H](CCCCN)C(=O)N[C@@H](CCC(N)=O)C(=O)N[C@@H](CCC(=O)O)C(=O)N[C@@H](CCCCN)C(=O)N[C@@H](CCC(=O)O)C(=O)N[C@@H](CCCCN)C(=O)N[C@@H](CCC(N)=O)C(=O)N[C@@H](CCC(N)=O)C(=O)N[C@@H](C)C(=O)N[C@@H](CCC(=O)O)C(=O)N[C@H](C(=O)N[C@@H](CC(N)=O)C(=O)N[C@@H](CCCCN)C(=O)N[C@@H](CCCNC(=N)N)C(=O)N[C@H](C(=O)N[C@@H](CC(C)C)C(=O)N[C@@H](CCC(=O)O)C(=O)N[C@@H](CCCNC(=N)N)C(=O)N[C@H](C(N)=O)C(C)C)[C@@H](C)CC)[C@@H](C)O)[C@@H](C)CC)[C@@H](C)CC)C(C)C)C(C)C` [compound 154] (H-IVLSLDVPIGLK([AEEA-AEEA-γGlu-C18 diacid])QILLEQEKQEKEKQQAETNKRILERV-NH2; N-terminus assumed), the concentration giving a half-maximal response (EC50) (as a rule, the concentration at which the effect is half-maximal) runs as follows: under setting [1], 15 nM; under setting [2], 15.3 nM. Take `CC[C@H](C)[C@H](N)C(=O)N[C@H](C(=O)N[C@@H](CC(C)C)C(=O)N[C@@H](CO)C(=O)N[C@@H](CC(C)C)C(=O)N[C@@H](CC(=O)O)C(=O)N[C@H](C(=O)N1CCC[C@H]1C(=O)N[C@H](C(=O)NCC(=O)N[C@@H](CC(C)C)C(=O)N[C@@H](CCCCNC(=O)COCCOCCNC(=O)COCCOCCNC(=O)CC[C@H](NC(=O)CCCCCCCCCCCCCCCCC(=O)O)C(=O)O)C(=O)N[C@@H](CCC(N)=O)C(=O)N[C@H](C(=O)N[C@@H](CC(C)C)C(=O)N[C@@H](CC(C)C)C(=O)N[C@@H](CCC(=O)O)C(=O)N[C@@H](CCC(N)=O)C(=O)N[C@@H](CCC(=O)O)C(=O)N[C@@H](CCCCN)C(=O)N[C@@H](CCC(N)=O)C(=O)N[C@@H](CCC(=O)O)C(=O)N[C@@H](CCCCN)C(=O)N[C@@H](CCC(=O)O)C(=O)N[C@@H](CCCCN)C(=O)N[C@@H](CCC(N)=O)C(=O)N[C@@H](CCC(N)=O)C(=O)N[C@@H](C)C(=O)N[C@@H](CCC(=O)O)C(=O)N[C@@H](CCCCN)C(=O)N[C@@H](CC(N)=O)C(=O)N[C@@H](CCCCN)C(=O)N[C@@H](CCCNC(=N)N)C(=O)N[C@H](C(=O)N[C@@H](CC(C)C)C(=O)N[C@@H](CCC(=O)O)C(=O)N[C@@H](CCCNC(=N)N)C(=O)N[C@H](C(N)=O)C(C)C)[C@@H](C)CC)[C@@H](C)CC)[C@@H](C)CC)C(C)C)C(C)C` [compound 155] (H-IVLSLDVPIGLK([AEEA-AEEA-γGlu-C18 diacid])QILLEQEKQEKEKQQAEKNKRILERV-NH2): the concentration giving a half-maximal response (EC50) under setting [1] is 8.87 nM. Take `CC[C@H](C)[C@H](N)C(=O)N[C@H](C(=O)N[C@@H](CC(C)C)C(=O)N[C@@H](CO)C(=O)N[C@@H](CC(C)C)C(=O)N[C@@H](CC(=O)O)C(=O)N[C@@H](C(=O)N1CCC[C@H]1C(=O)N[C@H](C(=O)N[C@@H](CCCCN)C(=O)N[C@@H](CC(C)C)C(=O)N[C@@H](CCCCNC(=O)COCCOCCNC(=O)COCCOCCNC(=O)CC[C@H](NC(=O)CCCCCCCCCCCCCCCCCCC(=O)O)C(=O)O)C(=O)N[C@@H](CCC(N)=O)C(=O)N[C@H](C(=O)N[C@@H](CC(C)C)C(=O)N[C@@H](CC(C)C)C(=O)N[C@@H](CCCCN)C(=O)N[C@@H](CCC(N)=O)C(=O)N[C@@H](C)C(=O)N[C@@H](CCCNC(=N)N)C(=O)N[C@@H](CCC(N)=O)C(=O)N[C@@H](CCCCN)C(=O)NC(C)(C)C(=O)N[C@@H](CCC(N)=O)C(=O)N[C@@H](CCCNC(=N)N)C(=O)N[C@@H](C)C(=O)N[C@@H](CCC(N)=O)C(=O)N[C@@H](C)C(=O)N[C@@H](CCC(=O)O)C(=O)N[C@@H](CCCCN)C(=O)N[C@@H](CC(N)=O)C(=O)N[C@@H](CCCCN)C(=O)N[C@@H](CCCNC(=N)N)C(=O)N[C@H](C(=O)N[C@@H](CC(C)C)C(=O)N[C@@H](CCC(=O)O)C(=O)N[C@@H](CCCNC(=N)N)C(=O)N[C@H](C(N)=O)C(C)C)[C@@H](C)CC)[C@@H](C)CC)[C@@H](C)CC)C(C)C)C(C)C` [compound 175] (H-IVLSLD[dV]PIKLK([AEEA-AEEA-γGlu-C20 diacid])QILLKQARQK[Aib]QRAQAEKNKRILERV-NH2; N-terminus assumed): the EC50 stood at 0.06 nM under setting [1] and 3.64 nM under setting [2].

`CC[C@H](C)[C@H](N)C(=O)N[C@H](C(=O)N[C@@H](CC(C)C)C(=O)N[C@@H](CO)C(=O)N[C@@H](CC(C)C)C(=O)N[C@@H](CC(=O)O)C(=O)N[C@@H](C(=O)N1CCC[C@H]1C(=O)N[C@H](C(=O)N[C@@H](CCCCN)C(=O)N[C@@H](CC(C)C)C(=O)N[C@@H](CCCCNC(=O)COCCOCCNC(=O)COCCOCCNC(=O)CC[C@H](NC(=O)CC[C@H](NC(=O)CCCCCCCCCCCCCCCCC(=O)O)C(=O)O)C(=O)O)C(=O)N[C@@H](CCC(N)=O)C(=O)N[C@H](C(=O)N[C@@H](CC(C)C)C(=O)N[C@@H](CC(C)C)C(=O)N[C@@H](CCCCN)C(=O)N[C@@H](CCC(N)=O)C(=O)N[C@@H](CCC(=O)O)C(=O)N[C@@H](CCCNC(=N)N)C(=O)N[C@@H](CCC(N)=O)C(=O)N[C@@H](CCCCN)C(=O)N[C@@H](CCCCN)C(=O)N[C@@H](CCC(N)=O)C(=O)N[C@@H](CCCNC(=N)N)C(=O)N[C@@H](CCC(N)=O)C(=O)N[C@@H](CCC(N)=O)C(=O)N[C@@H](C)C(=O)N[C@@H](CCC(=O)O)C(=O)N[C@@H](CCCCN)C(=O)N[C@@H](CC(N)=O)C(=O)N[C@@H](CCCCN)C(=O)N[C@@H](CCC(N)=O)C(=O)N[C@H](C(=O)N[C@@H](CC(C)C)C(=O)N[C@@H](C)C(=O)N[C@@H](CCC(N)=O)C(=O)N[C@H](C(N)=O)C(C)C)[C@@H](C)CC)[C@@H](C)CC)[C@@H](C)CC)C(C)C)C(C)C` [compound 176] (H-IVLSLD[dV]PIKLK([AEEA-AEEA-γGlu-γGlu-C18 diacid])QILLKQERQKKQRQQAEKNKQILAQV-NH2; N-terminus assumed): the EC50 is 0.11 nM under setting [1] and 3.05 nM under setting [2]. For `CC[C@H](C)[C@H](N)C(=O)N[C@H](C(=O)N[C@@H](CC(C)C)C(=O)N[C@@H](CO)C(=O)N[C@@H](CC(C)C)C(=O)N[C@@H](CC(=O)O)C(=O)N[C@@H](C(=O)N1CCC[C@H]1C(=O)N[C@H](C(=O)N[C@@H](CCCCN)C(=O)N[C@@H](CC(C)C)C(=O)N[C@@H](CCCCNC(=O)COCCOCCNC(=O)COCCOCCNC(=O)CC[C@H](NC(=O)CC[C@H](NC(=O)CCCCCCCCCCCCCCCCCCC(=O)O)C(=O)O)C(=O)O)C(=O)N[C@@H](CCC(N)=O)C(=O)N[C@H](C(=O)N[C@@H](CC(C)C)C(=O)N[C@@H](CC(C)C)C(=O)N[C@@H](CCCCN)C(=O)N[C@@H](CCC(N)=O)C(=O)N[C@@H](CCC(=O)O)C(=O)N[C@@H](CCCNC(=N)N)C(=O)N[C@@H](CCC(N)=O)C(=O)N[C@@H](CCCCN)C(=O)N[C@@H](CCCCN)C(=O)N[C@@H](CCC(N)=O)C(=O)N[C@@H](CCCNC(=N)N)C(=O)N[C@@H](CCC(N)=O)C(=O)N[C@@H](CCC(N)=O)C(=O)N[C@@H](C)C(=O)N[C@@H](CCC(=O)O)C(=O)N[C@@H](CCCCN)C(=O)N[C@@H](CC(N)=O)C(=O)N[C@@H](CCCCN)C(=O)N[C@@H](CCC(N)=O)C(=O)N[C@H](C(=O)N[C@@H](CC(C)C)C(=O)N[C@@H](C)C(=O)N[C@@H](CCC(N)=O)C(=O)N[C@H](C(N)=O)C(C)C)[C@@H](C)CC)[C@@H](C)CC)[C@@H](C)CC)C(C)C)C(C)C` [compound 177] (H-IVLSLD[dV]PIKLK([AEEA-AEEA-γGlu-γGlu-C20 diacid])QILLKQERQKKQRQQAEKNKQILAQV-NH2), in that order: 0.07 nM and 5.19 nM. Take `CC[C@H](C)[C@H](N)C(=O)N[C@H](C(=O)N[C@@H](CC(C)C)C(=O)N[C@@H](CO)C(=O)N[C@@H](CC(C)C)C(=O)N[C@@H](CC(=O)O)C(=O)N[C@@H](C(=O)N1CCC[C@H]1C(=O)N[C@H](C(=O)N[C@@H](CCCCN)C(=O)N[C@@H](CC(C)C)C(=O)N[C@@H](CCCCNC(=O)COCCOCCNC(=O)COCCOCCNC(=O)CC[C@H](NC(=O)CCCCCCCCCCCCCCCCCCC(=O)O)C(=O)O)C(=O)N[C@@H](CCC(N)=O)C(=O)N[C@H](C(=O)N[C@@H](CC(C)C)C(=O)N[C@@H](CC(C)C)C(=O)N[C@@H](CCCCN)C(=O)N[C@@H](CCC(N)=O)C(=O)N[C@@H](CCC(=O)O)C(=O)N[C@@H](CCCNC(=N)N)C(=O)N[C@@H](CCC(N)=O)C(=O)N[C@@H](CCCCN)C(=O)N[C@@H](CCCCN)C(=O)N[C@@H](CCC(N)=O)C(=O)N[C@@H](CCCNC(=N)N)C(=O)N[C@@H](CCC(N)=O)C(=O)N[C@@H](CCC(N)=O)C(=O)N[C@@H](C)C(=O)N[C@@H](CCC(=O)O)C(=O)N[C@@H](CCCCN)C(=O)N[C@@H](CC(N)=O)C(=O)N[C@@H](CCCCN)C(=O)N[C@@H](CCC(N)=O)C(=O)N[C@H](C(=O)N[C@@H](CC(C)C)C(=O)N[C@@H](C)C(=O)N[C@@H](CCC(N)=O)C(=O)N[C@H](C(N)=O)C(C)C)[C@@H](C)CC)[C@@H](C)CC)[C@@H](C)CC)C(C)C)C(C)C` [compound 178] (H-IVLSLD[dV]PIKLK([AEEA-AEEA-γGlu-C20 diacid])QILLKQERQKKQRQQAEKNKQILAQV-NH2; N-terminus assumed): the EC50 is, setting by setting: under setting [1], 0.04 nM; under setting [2], 3.77 nM.
